Like-named read-outs stand apart in the source and are kept apart here.
Molecular target: T1, Human M4 (Homo sapiens, UniProt P08173)
T1 construct: expressed in transfected cells; host or cells: CHO-K1 (ATCC), co-transfected with chimeric G protein Gqi5
T1 sequence (P08173 1-479): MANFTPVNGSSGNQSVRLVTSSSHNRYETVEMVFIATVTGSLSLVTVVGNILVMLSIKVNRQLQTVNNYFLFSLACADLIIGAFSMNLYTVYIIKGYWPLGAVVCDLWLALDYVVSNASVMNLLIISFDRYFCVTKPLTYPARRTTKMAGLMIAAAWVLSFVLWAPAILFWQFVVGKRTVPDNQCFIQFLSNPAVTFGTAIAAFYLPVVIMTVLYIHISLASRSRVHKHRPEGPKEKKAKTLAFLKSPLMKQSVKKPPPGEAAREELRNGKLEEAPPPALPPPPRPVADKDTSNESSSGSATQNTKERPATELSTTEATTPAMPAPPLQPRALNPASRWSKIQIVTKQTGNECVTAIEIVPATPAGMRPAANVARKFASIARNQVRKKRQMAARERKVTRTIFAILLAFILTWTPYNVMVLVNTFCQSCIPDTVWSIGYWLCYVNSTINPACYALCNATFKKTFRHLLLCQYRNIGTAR
Test: mAChR M4 cell-based functional assay (calcium flux, antagonism of EC80 acetylcholine response)
Details: for IC50: concentration-dependent decrease of the response elicited by an EC80 concentration of acetylcholine
Description: Human or rat M4 cDNA, along with the chimeric G protein Gqi5, were transfected into Chinese hamster ovary (CHO-K1) cells purchased from the American Type Culture Collection using Lipofectamine2000. M4/Gqi5/CHO cells were grown in Ham's F-12 medium containing 10% heat-inactivated fetal bovine serum (FBS), 20 mM HEPES, 500 μg/mL G418 sulfate, and 200 μg/mL Hygromycin B.
For high throughput measurement of agonist-evoked increases in intracellular calcium, CHO-K1 cells stably expressing muscarinic receptors were plated in growth medium lacking G418 and hygromycin at 15,000 cells/20 μL/well in Greiner 384-well black-walled, tissue culture (TC)-treated, clear-bottom plates (VWR). Cells were incubated overnight at 37° C. and 5% CO2. The next day, cells were washed using an ELX 405 (BioTek) with assay buffer; the final volume was then aspirated to 20 μL. Next, 20 μL of a 2.3 μM stock of Fluo-4/acetoxymethyl ester (Invitrogen, Carlsbad, CA), prepared as a 2.3 mM stock in DMSO and mixed in a 1:1 ratio with 10% (w/v) Pluronic F-127 and diluted in assay buffer, was added to the wells and the cell plates were incubated for 50 min at 37° C. and 5% CO2. Dye was removed by washing with the ELX 405 and the final volume was aspirated to 20 μL. Compound master plates were formatted in a 10 point concentration-response curve (CRC) format (1:3 dilutions) in 100% DMSO with a starting concentration of 10 or 1 mM using a BRAVO liquid handler (Agilent). Test compound CRCs were then transferred to daughter plates (240 nL) using the Echo acoustic plate reformatter (Labcyte, Sunnyvale, CA) and then diluted into assay buffer (40 μL) to a 2× stock using a Thermo Fisher Combi (Thermo Fisher Scientific, Waltham, MA).
Calcium flux was measured using the Functional Drug Screening System (FDSS) 6000 or 7000 (Hamamatsu Corporation, Tokyo, Japan) as an increase in the fluorescent static ratio. Compounds were applied to cells (20 μL, 2×) using the automated system of the FDSS at 2 seconds into the protocol and the data were collected at 1 Hz. At 143 s, 10 μL of an EC20 concentration of the muscarinic receptor agonist acetylcholine was added (5×), followed by the addition of 12 μL of an EC80 concentration of acetylcholine at the 268 s time point (5×). Agonist activity was analyzed as a concentration-dependent increase in calcium mobilization upon compound addition. Positive allosteric modulator activity was analyzed as a concentration-dependent increase in the EC20 acetylcholine response. Antagonist activity was analyzed as a concentration-dependent decrease in the EC80 acetylcholine response; for the purposes of the tables herein, an IC50 (inhibitory concentration 50) was calculated as a concentration-dependent decrease of the response elicited by an EC80 concentration of acetylcholine. Concentration-response curves were generated using a four-parameter logistical equation in XLFit curve fitting software (IDBS, Bridgewater, NJ) for Excel (Microsoft, Redmond, WA) or Prism (GraphPad Software, Inc., San Diego, CA) or the Dotmatics software platform (Dotmatics, Bishop's Stortford, UK).
Compounds were synthesized as described above. Activity (IC50 and Emin) was determined in the mAChR M4 cell-based functional assay as described above and the data are shown in Table 2.

[1] = CHO-K1, read-out: Human M4 Emin (% ACh maximum at 30 μM)
[2] = M4/Gqi5/CHO-K1 cells, % ACh maximum at 30 μM, read-out: Human M4 Emin (% ACh maximum at 30 μM)
[3] = M4/Gqi5/CHO-K1 cells, % ACh maximum at 30 μM

[2H]C([2H])(C1CCOCC1)N1C[C@H]2C[C@H](Nc3ccc(-c4cccc(C(=O)NC)c4)nn3)C[C@H]2C1 (single isomer, unassigned) [Compound A42]
remaining activity at 30 µM [1]: 14% | IC50 (M4/Gqi5/CHO-K1 cells): 0.4 µM

[2H]C([2H])([2H])NC(=O)c1cccc(-c2ccc(N[C@H]3C[C@@H]4CN(CC5CCOCC5)C[C@@H]4C3)nn2)c1 (single isomer, unassigned) [Compound A47]
remaining activity at 30 µM [2]: 4% | IC50 (M4/Gqi5/CHO-K1 cells): 0.01 µM

[2H]C([2H])([2H])NC(=O)c1cccc(-c2ccc(N[C@H]3C[C@@H]4CN(C([2H])([2H])C5CCOCC5)C[C@@H]4C3)nn2)c1 (single isomer, unassigned) [Compound A49]
remaining activity at 30 µM [2]: 3% | IC50 (M4/Gqi5/CHO-K1 cells): 0.0055 µM

[2H]C([2H])([2H])NC(=O)c1ccc(-c2ccc(N[C@H]3C[C@@H]4CN(CC5CCOCC5)C[C@@H]4C3)nn2)cc1 (single isomer, unassigned) [Compound A54]
remaining activity at 30 µM [2]: 3% | IC50 (M4/Gqi5/CHO-K1 cells): 0.0099 µM

[2H]C([2H])([2H])NC(=O)c1ccc(-c2ccc(N[C@H]3C[C@@H]4CN(C([2H])([2H])C5CCOCC5)C[C@@H]4C3)nn2)cc1 (single isomer, unassigned) [Compound A55]
remaining activity at 30 µM [1]: 3% | IC50 (M4/Gqi5/CHO-K1 cells): 0.0051 µM

[2H]C([2H])(C1CCOCC1)N1C[C@H]2C[C@H](Nc3ccc(-c4ccc(C(=O)NC)cc4)nn3)C[C@H]2C1 (single isomer, unassigned) [Compound A64]
remaining activity at 30 µM [2]: 5% | IC50 (M4/Gqi5/CHO-K1 cells): 0.016 µM

[2H]C1([2H])CC(C([2H])([2H])N2C[C@H]3C[C@H](Nc4ccc(-c5cccc(C(=O)NC)c5)nn4)C[C@H]3C2)CC([2H])([2H])O1 (single isomer, unassigned) [Compound A74]
remaining activity at 30 µM [2]: 4% | IC50 (M4/Gqi5/CHO-K1 cells): 0.04 µM

[2H]C([2H])(C1CCOCC1)N1C[C@H]2C[C@H](Nc3ccc(-c4ccc(NC(C)=O)cc4)nn3)C[C@H]2C1 (single isomer, unassigned) [Compound B1]
Human M4 Emin (% ACh maximum at 30 μM) [3]: 4% | IC50 (M4/Gqi5/CHO-K1 cells): 0.0004 µM

[2H]C([2H])([2H])C(=O)Nc1ccc(-c2ccc(N[C@H]3C[C@@H]4CN(CC5CCOCC5)C[C@@H]4C3)nn2)cc1 (single isomer, unassigned) [Compound B5]
Human M4 Emin (% ACh maximum at 30 μM) [3]: 3% | IC50 (M4/Gqi5/CHO-K1 cells): 0.0024 µM

[2H]C([2H])([2H])C(=O)Nc1ccc(-c2ccc(N[C@H]3C[C@@H]4CN(C([2H])([2H])C5CCOCC5)C[C@@H]4C3)nn2)cc1 (single isomer, unassigned) [Compound B6]
Human M4 Emin (% ACh maximum at 30 μM) [3]: 3% | IC50 (M4/Gqi5/CHO-K1 cells): 0.0012 µM

CC(=O)Nc1ccc(-c2ccc(N[C@H]3C[C@@H]4CN(Cc5ccccc5F)C[C@@H]4C3)nn2)cc1 [Compound A1, N-(4-(6-(((3aR,5s,6aS)-2-(2-fluorobenzyl)octahydrocyclopenta[c]pyrrol-5-yl)amino)pyridazin-3-yl)phenyl)acetamide]
remaining activity at 30 µM [2]: 4% | IC50 (M4/Gqi5/CHO-K1 cells): 0.062 µM

CC(=O)Nc1ccc(-c2ccc(N[C@H]3C[C@@H]4CN(Cc5cccc(F)c5)C[C@@H]4C3)nn2)cc1 [Compound A2, N-(4-(6-(((3aR,5s,6aS)-2-(3-fluorobenzyl)octahydrocyclopenta[c]pyrrol-5-yl)amino)pyridazin-3-yl)phenyl)acetamide]
remaining activity at 30 µM [2]: 4% | IC50 (M4/Gqi5/CHO-K1 cells): 0.051 µM

CC(=O)Nc1ccc(-c2ccc(N[C@H]3C[C@@H]4CN(Cc5ccc(F)cc5)C[C@@H]4C3)nn2)cc1 [Compound A3, N-(4-(6-(((3aR,5s,6aS)-2-(4-fluorobenzyl)octahydrocyclopenta[c]pyrrol-5-yl)amino)pyridazin-3-yl)phenyl)acetamide]
remaining activity at 30 µM [2]: 2% | IC50 (M4/Gqi5/CHO-K1 cells): 0.01 µM

CC(=O)Nc1ccc(-c2ccc(N[C@H]3C[C@@H]4CN(Cc5ccc6c(c5)OCO6)C[C@@H]4C3)nn2)cc1 [Compound A4, N-(4-(6-(((3aR,5s,6aS)-2-(benzo[d][1,3]dioxol-5-ylmethyl)octahydrocyclopenta[c]pyrrol-5-yl)amino)pyridazin-3-yl)phenyl)acetamide]
remaining activity at 30 µM [2]: 3% | IC50 (M4/Gqi5/CHO-K1 cells): 0.00019 µM

CC(=O)Nc1ccc(-c2ccc(N[C@H]3C[C@@H]4CN(Cc5cc(C)n(C)n5)C[C@@H]4C3)nn2)cc1 [Compound A5, N-(4-(6-(((3aR,5s,6aS)-2-((1,5-dimethyl-1H-pyrazol-3-yl)methyl)octahydrocyclopenta[c]pyrrol-5-yl)amino)pyridazin-3-yl)phenyl)acetamide]
remaining activity at 30 µM [2]: 10% | IC50 (M4/Gqi5/CHO-K1 cells): 2.3 µM

CC(=O)Nc1ccc(-c2ccc(N[C@H]3C[C@@H]4CN(CC5(C)COC5)C[C@@H]4C3)nn2)cc1 [Compound A6, N-(4-(6-(((3aR,5s,6aS)-2-((3-methyloxetan-3-yl)methyl)octahydrocyclopenta[c]pyrrol-5-yl)amino)pyridazin-3-yl)phenyl)acetamide]
remaining activity at 30 µM [2]: 16% | IC50 (M4/Gqi5/CHO-K1 cells): 4.6 µM

CC(=O)Nc1ccc(-c2ccc(N[C@H]3C[C@@H]4CN(Cc5ccccc5C(F)(F)F)C[C@@H]4C3)nn2)cc1 [Compound A7, N-(4-(6-(((3aR,5s,6aS)-2-(2-(trifluoromethyl)benzyl)octahydrocyclopenta [c]pyrrol-5-yl)amino)pyridazin-3-yl)phenyl)acetamide]
remaining activity at 30 µM [2]: 10% | IC50 (M4/Gqi5/CHO-K1 cells): 1.1 µM

CC(=O)Nc1ccc(-c2ccc(N[C@H]3C[C@@H]4CN(Cc5ccccn5)C[C@@H]4C3)nn2)cc1 [Compound A8, N-(4-(6-(((3aR,5s,6aS)-2-(Pyridin-2-ylmethyl)octahydrocyclopenta[c]pyrrol-5-yl)amino)pyridazin-3-yl)phenyl)acetamide]
remaining activity at 30 µM [1]: 5% | IC50 (M4/Gqi5/CHO-K1 cells): 0.043 µM

CN(C)C(=O)c1cc(F)c(F)c(-c2ccc(N[C@H]3C[C@@H]4CN(CC5CCOCC5)C[C@@H]4C3)nn2)c1 [Compound A9, 3,4-difluoro-N,N-dimethyl-5-(6-(((3aR,5s,6aS)-2-((tetrahydro-2H-pyran-4-yl)methyl)octahydrocyclopenta[c]pyrrol-5-yl)amino)pyridazin-3-yl)benzamide]
remaining activity at 30 µM [2]: 5% | IC50 (M4/Gqi5/CHO-K1 cells): 0.44 µM

O=C(c1cc(F)c(F)c(-c2ccc(N[C@H]3C[C@@H]4CN(CC5CCOCC5)C[C@@H]4C3)nn2)c1)N1CCOCC1 [Compound A10, (3,4-difluoro-5-(6-(((3aR,5s,6aS)-2-((tetrahydro-2H-pyran-4-yl)methyl)octahydrocyclopenta[c]pyrrol-5-yl)amino)pyridazin-3-yl)phenyl)(morpholino)methanone]
remaining activity at 30 µM [2]: 3% | IC50 (M4/Gqi5/CHO-K1 cells): 0.082 µM

— patent publication US20240228468A1, “N-(6-((OCTAHYDROCYCLOPENTA[C]PYRROL-5-YI)AMINO)PYRIDAZIN-3-YL)PHENYL)CARBOXAMIDE AND (6- ((OCTAHYDROCYCLOPENTA[C]PYRROL-5-YL)AMINO)PYRIDAZIN-3-YL)BENZAMIDE DERIVATIVES AS MACHR M4 ANTAGONISTS FOR THE TREATMENT OF NEURODEGENERATIVE DISORDERS” (Vanderbilt University, priority 2021, published 2024)
